≈ marks a conversion by molar mass, not a printed value.
Columns and labels:
[1] = Antifungal activity against Cryptococcus gattii VGI assessed as inhibition of fungal growth; type: functional
Cryptococcus neoformans [2] = assay: Antifungal activity against Cryptococcus neoformans assessed as inhibition of fungal growth; type: functional
[3] = Antifungal activity against Cryptococcus gattii ATCC 24065 assessed as inhibition of fungal growth incubated for 24 to 48 hrs by CLSI protocol based broth microdilution method; type: functional, Cryptococcus gattii VGI; conditions: time 24-48 hrs
Cryptococcus neoformans [4] = assay: Antifungal activity against Cryptococcus neoformans ATCC 24067 assessed as inhibition of fungal growth incubated for 24 to 48 hrs by CLSI based broth microdilution method; type: functional; conditions: time 24-48 hrs
Candida albicans = assay: Antifungal activity against Candida albicans SC5314 assessed as inhibition of fungal growth incubated for 24 to 48 hrs by CLSI protocol based broth microdilution method; type: functional; conditions: time 24-48 hrs
Nakaseomyces glabratus = assay: Antifungal activity against Candida glabrata ATCC 2001 assessed as inhibition of fungal growth incubated for 24 to 48 hrs by CLSI protocol based broth microdilution method; type: functional; conditions: time 24-48 hrs
Pichia kudriavzevii = assay: Antifungal activity against Candida krusei ATCC 20298 assessed as inhibition of fungal growth incubated for 24 to 48 hrs by CLSI protocol based broth microdilution method; type: functional; conditions: time 24-48 hrs
Candida parapsilosis = assay: Antifungal activity against Candida parapsilosis ATCC 22019 assessed as inhibition of fungal growth incubated for 24 to 48 hrs by CLSI protocol based broth microdilution method; type: functional; conditions: Lodderomyces parapsilosis, time 24-48 hrs
[Candida] auris = Antifungal activity against Candida auris COLO 01 assessed as inhibition of fungal growth incubated for 24 to 48 hrs by CLSI protocol based broth microdilution method; type: functional; conditions: Candidozyma auris, time 24-48 hrs
Candida tropicalis = assay: Antifungal activity against Candida tropicalis ATCC 750 assessed as inhibition of fungal growth incubated for 24 to 48 hrs by CLSI protocol based broth microdilution method; type: functional; conditions: time 24-48 hrs

| SMILES | MIC [1] [µM] | MIC (Cryptococcus neoformans [2]) [µM] | MIC [3] [µM] | MIC (Cryptococcus neoformans [4]) [µM] | MIC (Candida albicans) [µM] | MIC (Nakaseomyces glabratus) [µM] | MIC (Pichia kudriavzevii) [µM] | MIC (Candida parapsilosis) [µM] | MIC ([Candida] auris) [µM] | MIC (Candida tropicalis) [µM] |
| --- | --- | --- | --- | --- | --- | --- | --- | --- | --- | --- |
| C(=N\Nc1nc(-c2ccccc2)cs1)/C1CCCCC1 | 0.9 (≈ 0.257 µg/mL) | 0.9 (≈ 0.257 µg/mL) |  |  |  |  |  |  |  |  |
| COc1ccc(-c2csc(N/N=C/C3CCCCC3)n2)cc1 | 1.58 (≈ 0.498 µg/mL) | 0.79 (≈ 0.249 µg/mL) |  |  |  |  |  |  |  |  |
| c1ccc(-c2csc(NN=C3CCCC3)n2)cc1 | 1.94 (≈ 0.499 µg/mL) | 1.94 (≈ 0.499 µg/mL) |  |  |  |  |  |  |  |  |
| C/C(=N\Nc1nc(-c2ccc(C)cc2)cs1)C(=O)O |  |  |  |  | 14.2 (≈ 3.91 µg/mL) |  | 28.4 (≈ 7.82 µg/mL) |  | 14.2 (≈ 3.91 µg/mL) | 114 (≈ 31.3 µg/mL) |
| CCOC(=O)Cc1csc(NN=C(C)C(=O)OCC)n1 |  |  | > 125 | > 125 | 104 (≈ 31.3 µg/mL) | 52.2 (≈ 15.6 µg/mL) | 13 (≈ 3.89 µg/mL) | 104 (≈ 31.3 µg/mL) | 104 (≈ 31.3 µg/mL) | 104 (≈ 31.3 µg/mL) |
| C/C(=N\Nc1nc(-c2ccccc2)cs1)C(=O)O |  |  |  |  | 29.9 (≈ 7.81 µg/mL) |  | 29.9 (≈ 7.81 µg/mL) |  | 29.9 (≈ 7.81 µg/mL) | 59.8 (≈ 15.6 µg/mL) |
| C/C(CCC(=O)O)=N\Nc1nc(-c2ccc(Br)cc2)cs1 |  |  | 1.3 (≈ 0.479 µg/mL) | 2.6 (≈ 0.957 µg/mL) | 0.3 (≈ 0.11 µg/mL) | 42.4 (≈ 15.6 µg/mL) | 1.3 (≈ 0.479 µg/mL) | 1.3 (≈ 0.479 µg/mL) | 0.3 (≈ 0.11 µg/mL) | 2.6 (≈ 0.957 µg/mL) |
| COc1ccc(-c2csc(N/N=C(\C)CCC(=O)O)n2)cc1 |  |  | 0.2 (≈ 0.0639 µg/mL) | 0.8 (≈ 0.256 µg/mL) | 3 (≈ 0.958 µg/mL) | 48.9 (≈ 15.6 µg/mL) | 1.5 (≈ 0.479 µg/mL) | 3 (≈ 0.958 µg/mL) | 1.5 (≈ 0.479 µg/mL) | 6.1 (≈ 1.95 µg/mL) |
| C/C(=N\Nc1nc(-c2ccc(Br)cc2)cs1)C(=O)O |  |  | 2.4 (≈ 0.816 µg/mL) | 2.4 (≈ 0.816 µg/mL) | 23 (≈ 7.82 µg/mL) |  | 23 (≈ 7.82 µg/mL) |  | 23 (≈ 7.82 µg/mL) | 91.9 (≈ 31.3 µg/mL) |
| CCOC(=O)/C(C)=N/Nc1nc(-c2ccc(Cl)cc2)cs1 |  |  | > 125 | > 125 | > 125 | > 125 | > 125 | > 125 | > 125 | > 125 |
| C/C(=N\Nc1nc(-c2ccc(C#N)cc2)cs1)C(=O)O |  |  | 175 (≈ 50 µg/mL) | 22 (≈ 6.3 µg/mL) | 109 (≈ 31.3 µg/mL) |  | 109 (≈ 31.3 µg/mL) |  | 13.7 (≈ 3.92 µg/mL) | > 125 |
| COc1ccc(-c2csc(N/N=C(\C)C(=O)O)n2)cc1 |  |  |  |  | 26.8 (≈ 7.81 µg/mL) |  | 56.6 (≈ 16.5 µg/mL) |  | 13.4 (≈ 3.9 µg/mL) | 56.6 (≈ 16.5 µg/mL) |

The remaining lines, values ahead:

| MIC [1] [µM] | MIC (Cryptococcus neoformans [2]) [µM] | MIC [3] [µM] | MIC (Cryptococcus neoformans [4]) [µM] | MIC (Candida albicans) [µM] | MIC (Nakaseomyces glabratus) [µM] | MIC (Pichia kudriavzevii) [µM] | MIC (Candida parapsilosis) [µM] | MIC ([Candida] auris) [µM] | MIC (Candida tropicalis) [µM] | SMILES |
| --- | --- | --- | --- | --- | --- | --- | --- | --- | --- | --- |
|  |  | > 125 | > 125 | > 125 | > 125 | > 125 | > 125 | > 125 | > 125 | CCOC(=O)/C(C)=N/Nc1nc(-c2ccccc2)cs1 |
|  |  | > 125 | > 125 | > 125 | > 125 | > 125 | > 125 | > 125 | > 125 | CCOC(=O)c1sc(NN=C2CCOCC2)nc1C |
|  |  | > 125 | > 125 | 57.6 (≈ 15.6 µg/mL) |  | 28.8 (≈ 7.81 µg/mL) |  | 57.6 (≈ 15.6 µg/mL) | > 125 | CCOC(=O)Cc1csc(NN=C(C)C(=O)O)n1 |
|  |  | > 125 | > 125 | > 125 | > 125 | > 125 | > 125 | > 125 | > 125 | CCOC(=O)/C(C)=N/Nc1nc(-c2ccc(OC)cc2)cs1 |
|  |  | 1.5 (≈ 0.486 µg/mL) | 3 (≈ 0.971 µg/mL) | 1.5 (≈ 0.486 µg/mL) | 96.5 (≈ 31.2 µg/mL) | 1.5 (≈ 0.486 µg/mL) | 6 (≈ 1.94 µg/mL) | 0.7 (≈ 0.227 µg/mL) | 6 (≈ 1.94 µg/mL) | C/C(CCC(=O)O)=N\Nc1nc(-c2ccc(Cl)cc2)cs1 |
|  |  | 5.7 (≈ 1.59 µg/mL) | 11.1 (≈ 3.1 µg/mL) | 28 (≈ 7.82 µg/mL) |  | 28 (≈ 7.82 µg/mL) |  | 7 (≈ 1.96 µg/mL) | 112 (≈ 31.3 µg/mL) | C/C(=N\Nc1nc(-c2ccc(F)cc2)cs1)C(=O)O |
|  |  | 5.4 (≈ 1.6 µg/mL) | 5.4 (≈ 1.6 µg/mL) | 26.4 (≈ 7.81 µg/mL) |  | 26.4 (≈ 7.81 µg/mL) |  | 6.6 (≈ 1.95 µg/mL) | 106 (≈ 31.3 µg/mL) | C/C(=N\Nc1nc(-c2ccc(Cl)cc2)cs1)C(=O)O |

Source: ChEMBL document CHEMBL5375986, “Discovery of Lead 2-Thiazolylhydrazones with Broad-Spectrum and Potent Antifungal Activity” (J Med Chem, 2023)
